Data reported in BigSolDB 2.1.

Work on `CC(C)C[C@H](N)C(=O)O` yielded a solubility (mole fraction) (in 1,4-dioxane, 288.15 K) of 3.61e-05, a solubility (mole fraction) (in 1,4-dioxane, 293.15 K) of 5.3e-05 and a solubility (mole fraction) (in 1,4-dioxane, 298.15 K) of 7.25e-05. For the same compound, the solubility (mole fraction) (in 1,4-dioxane, 303.15 K) was 9.39e-05, the solubility (mole fraction) (in 1,4-dioxane, 308.15 K) was 0.000122 and the solubility (mole fraction) (in 1,4-dioxane, 313.15 K) was 0.000149. For the same compound, the solubility (mole fraction) (in 1,4-dioxane, 318.15 K) was 0.00019, the solubility (mole fraction) (in 1,4-dioxane, 323.15 K) was 0.000238 and the solubility (mole fraction) (in 1,4-dioxane, 328.15 K) was 0.000309. For the same compound, the solubility (mole fraction) (in acetone, 283.15 K) was 3.16e-05, the solubility (mole fraction) (in acetone, 288.15 K) was 4.52e-05 and the solubility (mole fraction) (in acetone, 293.15 K) was 6.31e-05. The solubility (mole fraction) (in acetone, 298.15 K) was 8.39e-05, the solubility (mole fraction) (in acetone, 303.15 K) was 0.00011 and the solubility (mole fraction) (in acetone, 308.15 K) was 0.000145. The solubility (mole fraction) (in acetone, 313.15 K) was 0.000179, the solubility (mole fraction) (in acetone, 318.15 K) was 0.000218 and the solubility (mole fraction) (in acetone, 323.15 K) was 0.000269. The solubility (mole fraction) (in acetonitrile, 283.15 K) was 3.87e-05, the solubility (mole fraction) (in acetonitrile, 288.15 K) was 4.44e-05 and the solubility (mole fraction) (in acetonitrile, 293.15 K) was 5.02e-05. It also gave a solubility (mole fraction) (in acetonitrile, 298.15 K) of 5.71e-05, a solubility (mole fraction) (in acetonitrile, 303.15 K) of 6.68e-05 and a solubility (mole fraction) (in acetonitrile, 308.15 K) of 7.59e-05. For the same compound, the solubility (mole fraction) (in acetonitrile, 313.15 K) was 8.6e-05, the solubility (mole fraction) (in acetonitrile, 318.15 K) was 0.000102 and the solubility (mole fraction) (in acetonitrile, 323.15 K) was 0.000123. The solubility (mole fraction) (in ethanol, 283.15 K) was 0.000146, the solubility (mole fraction) (in ethanol, 288.15 K) was 0.00015 and the solubility (mole fraction) (in ethanol, 293.15 K) was 0.000156. For the same compound, the solubility (mole fraction) (in ethanol, 298.15 K) was 0.000171, the solubility (mole fraction) (in ethanol, 303.15 K) was 0.00019 and the solubility (mole fraction) (in ethanol, 308.15 K) was 0.000206. For the same compound, the solubility (mole fraction) (in ethanol, 313.15 K) was 0.000221, the solubility (mole fraction) (in ethanol, 318.15 K) was 0.000286 and the solubility (mole fraction) (in ethanol, 323.15 K) was 0.00034. It also gave a solubility (mole fraction) (in ethyl acetate, 283.15 K) of 0.000156, a solubility (mole fraction) (in ethyl acetate, 288.15 K) of 0.000169 and a solubility (mole fraction) (in ethyl acetate, 293.15 K) of 0.000197. The solubility (mole fraction) (in ethyl acetate, 298.15 K) was 0.000222, the solubility (mole fraction) (in ethyl acetate, 303.15 K) was 0.00026 and the solubility (mole fraction) (in ethyl acetate, 308.15 K) was 0.000303. The solubility (mole fraction) (in ethyl acetate, 313.15 K) was 0.000341, the solubility (mole fraction) (in ethyl acetate, 318.15 K) was 0.000396 and the solubility (mole fraction) (in ethyl acetate, 323.15 K) was 0.000449. The solubility (mole fraction) (in isobutanol, 283.15 K) was 0.000152, the solubility (mole fraction) (in isobutanol, 288.15 K) was 0.000157 and the solubility (mole fraction) (in isobutanol, 293.15 K) was 0.000162. For the same compound, the solubility (mole fraction) (in isobutanol, 298.15 K) was 0.000175, the solubility (mole fraction) (in isobutanol, 303.15 K) was 0.000201 and the solubility (mole fraction) (in isobutanol, 308.15 K) was 0.000228. The solubility (mole fraction) (in isobutanol, 313.15 K) was 0.000254, the solubility (mole fraction) (in isobutanol, 318.15 K) was 0.000304 and the solubility (mole fraction) (in isobutanol, 323.15 K) was 0.00035. The solubility (mole fraction) (in isopropanol, 283.15 K) was 0.000156, the solubility (mole fraction) (in isopropanol, 288.15 K) was 0.00016 and the solubility (mole fraction) (in isopropanol, 293.15 K) was 0.000173. For the same compound, the solubility (mole fraction) (in isopropanol, 298.15 K) was 0.000187, the solubility (mole fraction) (in isopropanol, 303.15 K) was 0.000212 and the solubility (mole fraction) (in isopropanol, 308.15 K) was 0.000254. It also gave a solubility (mole fraction) (in isopropanol, 313.15 K) of 0.000271, a solubility (mole fraction) (in isopropanol, 318.15 K) of 0.000318 and a solubility (mole fraction) (in isopropanol, 323.15 K) of 0.000368. It also gave a solubility (mole fraction) (in methanol, 283.15 K) of 0.000558, a solubility (mole fraction) (in methanol, 288.15 K) of 0.000588 and a solubility (mole fraction) (in methanol, 293.15 K) of 0.000655. The solubility (mole fraction) (in methanol, 298.15 K) was 0.000686, the solubility (mole fraction) (in methanol, 303.15 K) was 0.000744 and the solubility (mole fraction) (in methanol, 308.15 K) was 0.000817. The solubility (mole fraction) (in methanol, 313.15 K) was 0.000896, the solubility (mole fraction) (in methanol, 318.15 K) was 0.001 and the solubility (mole fraction) (in methanol, 323.15 K) was 0.00118. For the same compound, the solubility (mole fraction) (in methyl acetate, 283.15 K) was 0.000158, the solubility (mole fraction) (in methyl acetate, 288.15 K) was 0.000162 and the solubility (mole fraction) (in methyl acetate, 293.15 K) was 0.000168. It also gave a solubility (mole fraction) (in methyl acetate, 298.15 K) of 0.000178, a solubility (mole fraction) (in methyl acetate, 303.15 K) of 0.000192 and a solubility (mole fraction) (in methyl acetate, 308.15 K) of 0.000211. It also gave a solubility (mole fraction) (in methyl acetate, 313.15 K) of 0.000227, a solubility (mole fraction) (in methyl acetate, 318.15 K) of 0.000254 and a solubility (mole fraction) (in methyl acetate, 323.15 K) of 0.000287. It also gave a solubility (mole fraction) (in n-butanol, 283.15 K) of 2.59e-05, a solubility (mole fraction) (in n-butanol, 288.15 K) of 2.78e-05 and a solubility (mole fraction) (in n-butanol, 293.15 K) of 4.16e-05. It also gave a solubility (mole fraction) (in n-butanol, 298.15 K) of 5.42e-05, a solubility (mole fraction) (in n-butanol, 303.15 K) of 7.83e-05 and a solubility (mole fraction) (in n-butanol, 308.15 K) of 0.000103. The solubility (mole fraction) (in n-butanol, 313.15 K) was 0.000129, the solubility (mole fraction) (in n-butanol, 318.15 K) was 0.000171 and the solubility (mole fraction) (in n-butanol, 323.15 K) was 0.000215. For the same compound, the solubility (mole fraction) (in n-propanol, 283.15 K) was 9.7e-05, the solubility (mole fraction) (in n-propanol, 288.15 K) was 0.000107 and the solubility (mole fraction) (in n-propanol, 293.15 K) was 0.000123. It also gave a solubility (mole fraction) (in n-propanol, 298.15 K) of 0.000142, a solubility (mole fraction) (in n-propanol, 303.15 K) of 0.000163 and a solubility (mole fraction) (in n-propanol, 308.15 K) of 0.000187. For the same compound, the solubility (mole fraction) (in n-propanol, 313.15 K) was 0.000217, the solubility (mole fraction) (in n-propanol, 318.15 K) was 0.00026 and the solubility (mole fraction) (in n-propanol, 323.15 K) was 0.000316. The solubility (mole fraction) (in water, 283.15 K) was 0.00322, the solubility (mole fraction) (in water, 288.15 K) was 0.00326 and the solubility (mole fraction) (in water, 293.15 K) was 0.00331. It also gave a solubility (mole fraction) (in water, 298.15 K) of 0.00339, a solubility (mole fraction) (in water, 303.15 K) of 0.00348 and a solubility (mole fraction) (in water, 308.15 K) of 0.00358. For the same compound, the solubility (mole fraction) (in water, 313.15 K) was 0.00374, the solubility (mole fraction) (in water, 318.15 K) was 0.00385 and the solubility (mole fraction) (in water, 323.15 K) was 0.00404.
